Patent US20240010606A1, “FUMARATE DERIVATIVES AND THEIR MEDICAL USE” (Sitryx Therapeutics Limited, priority 2020, published 2024)

Assays:
IL-1β = experiment: THP-1 AlphaLISA IL-1β cytokine assay; type: cell-based; conditions: Homo sapiens, differentiated THP-1 cells
How it was run: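 THP-1 cells differentiated 72 h with PMA, pre-incubated 30 min with compounds, stimulated 24 h with LPS, then 1 h with nigericin, all at 37 °C. Supernatant cytokine measured by AlphaLISA; % inhibition normalised to ±LPS controls and IC50 taken from concentration-response curves.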

[1] = Hepatocyte stability assay, human; type: in vitro ADME; conditions: cryopreserved hepatocytes, 10 μM compound
How it was run: (§1)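 Cryopreserved hepatocytes (viability >70%) at 0.5×10^6 cells/mL in Leibovitz buffer, preincubated 10 min at 37 °C, then compound at 10 μM (0.1% DMSO) in duplicate; buffer-only incubations as control. Samples at 0-60 min quenched in acetonitrile, analysed by LC-MS/MS; half-life and CLint (μL min^−1 10^−6 cells) from ln % remaining versus time.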

hepatocytes [2] = experiment: Hepatocyte stability assay, human; type: in vitro ADME; conditions: 10 μM compound
How it was run: as §1

NRF2 = NRF2 activation assay (DiscoverX PathHunter NRF2 translocation kit, U2OS cells); type: cell-based
How it was run: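 PathHunter U2OS cells, grown 24 h at 37 °C/5% CO2, treated 6 h with compound; NRF2 nuclear translocation read as enzyme-fragment-complementation chemiluminescence. Activation normalised to dimethyl fumarate high and untreated low controls; EC50 from concentration-response curve.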

[3] = Hepatocyte stability assay, mouse; type: in vitro ADME; conditions: mouse, cryopreserved hepatocytes, 10 μM compound
How it was run: as §1

hepatocytes [4] = experiment: Hepatocyte stability assay, mouse; type: in vitro ADME; conditions: 10 μM compound
How it was run: as §1

IL-6 = experiment: THP-1 AlphaLISA IL-6 cytokine assay; type: cell-based; conditions: Homo sapiens
Method: Biological Example 1—THP-1 AlphaLISA IL-1β and IL-6 Cytokine Assay Measuring Inhibitory Effects on IL-1, and IL-6 Cytokine Output from THP-1s The cytokine inhibition profiles of compounds of formula (I) were determined in a differentiated THP-1 cell assay. All assays were performed in RPMI-1640 growth medium (Gibco), supplemented with 10% fetal bovine serum (FBS; Gibco), 1% penicillin-streptomycin and 1% sodium pyruvate unless specified otherwise. The IL-1β and IL-6 cytokine inhibition assays were each run in a background of differentiated THP-1 cells as described below. All reagents described were from Sigma-Aldrich unless specified otherwise. Compounds were prepared as 10 mM DMSO stocks. THP-1 cells were expanded as a suspension up to 80% confluence in appropriate growth medium. Cells were harvested, suspended, and treated with an appropriate concentration of phorbol 12-myristate 13-acetate (PMA) over a 72 hr period (37° C./5% CO2). Following 72 hrs of THP-1 cell incubation, cellular medium was removed and replaced with fresh growth media containing 1% of FBS. Working concentrations of compounds were prepared separately in 10% FBS treated growth medium and pre-incubated with the cells for 30 minutes (37° C./5% CO2). Following the 30 minute compound pre-incubation, THP-1s were treated with an appropriate concentration of LPS and the THP-1s were subsequently incubated for a 24 hr period (37° C./5% CO2). An appropriate final concentration of Nigericin was then dispensed into the THP-1 plates and incubated for 1 hour (37° C./5% CO2) before THP-1 supernatants were harvested and collected in separate polypropylene 96-well holding plates. Reagents from each of the IL-1β and IL-6 commercial kits (Perkin Elmer) were prepared and run according to the manufacturer's instructions. Subsequently, fluorescence signal detection in a microplate reader was measured (EnVision® Multilabel Reader, Perkin Elmer). Percentage inhibition was calculated per cytokine by normalizing the sample data to the high and low controls used within each plate (+/−LPS respectively). Percentage inhibition was then plotted against compound concentration and the 50% inhibitory concentration (IC50) was determined from the resultant concentration-response curve.

[5] = +GSH, normalised to dimethyl fumarate high control, Table 3
[6] = −GSH, normalised to dimethyl fumarate high control, Table 3
[7] = THP-1, differentiated THP-1 cells, LPS then Nigericin, Table 1
[8] = Table 2, compounds of formula (II)
[9] = +GSH, Table 4, compounds of formula (II)
[10] = −GSH, Table 4, compounds of formula (II)
[11] = THP-1, differentiated THP-1 cells, Table 2, compounds of formula (II)

SMILES | IC50 (IL-1β; LPS then Nigericin, Table 1) [µM] | half-life at 10 μM ([1]; Table 5, read-out: T½) [min] | CIint (hepatocytes [2]; Table 5) | EC50 (NRF2; +GSH, Table 3) [µM] | NRF2 activation Emax (NRF2; [5]) | EC50 (NRF2; −GSH, Table 3) [µM] | NRF2 activation Emax (NRF2; [6]) | half-life at 10 μM ([3]; Table 5, read-out: T½) [min] | CIint (hepatocytes [4]; Table 5) | IC50 (IL-6; [7]) [µM] | IC50 (IL-1β; [8]) [µM] | half-life at 10 μM ([1]; Table 6, read-out: T½) [min] | CIint (hepatocytes [2]; Table 6) | half-life at 10 μM ([3]; Table 6, read-out: T½) [min] | CIint (hepatocytes [4]; Table 6) | IC50 (IL-6; [11]) [µM] | other results
O=C(O)COC(=O)/C=C/C(=O)OC1CCCCCCC1 [Example 1, (E)-2-((4-(cyclooctyloxy)-4-oxobut-2-enoyl)oxy)acetic acid] | 2.5 to 6.1 | 30 to 100 | ++++ (++++ means <50) | 6 to 20 | ++ (++ means 100-149) | < 2 | ++++ (++++ means 200-250%) | < 5 | + (+ means >277) | < 2.5 | – | – | – | – | – | – | –
O=C(O)COC(=O)/C=C/C(=O)OC1CCCCC1 [Example 2, (E)-2-((4-(cyclohexyloxy)-4-oxobut-2-enoyl)oxy)acetic acid] | 9.3 to 14.3 | 30 to 100 | ++++ (++++ means <50) | 20 to 100 | + (+ means >17.1-99) | 2.1 to 6 | ++++ (++++ means 200-250%) | 5 to 10 | ++ (++ means 200-277) | 6.2 to 9.2 | – | – | – | – | – | – | –
O=C(O)CCOC(=O)/C=C/C(=O)OC1CCCCCCC1 [Example 3, (E)-3-((4-(Cyclooctyloxy)-4-oxobut-2-enoyl)oxy)propanoic acid] | < 2.5 | 5 to 29 | +++ (+++ means 50-149) | 20 to 100 | ++ (++ means 100-149) | < 2 | ++++ (++++ means 200-250%) | < 5 | + (+ means >277) | < 2.5 | – | – | – | – | – | – | –
O=C(O)CCOC(=O)/C=C/C(=O)OC1CCCCC1 [Example 4, (E)-3-((4-(cyclohexyloxy)-4-oxobut-2-enoyl)oxy)propanoic acid] | 2.5 to 6.1 | 5 to 29 | +++ (+++ means 50-149) | 6 to 20 | + (+ means >17.1-99) | 2.1 to 6 | +++ (+++ means 150-199%) | < 5 | + (+ means >277) | < 2.5 | – | – | – | – | – | – | IC50 (IL-6; THP-1, from repeated experiments, Table 1): 2.5 to 6.1 µM
O=C(O)COC(=O)/C=C/C(=O)OC1(c2ccc(C(F)(F)F)cc2)CCC1 [Example 15, (E)-2-((4-oxo-4-(1-(4-(trifluoromethyl)phenyl)cyclobutoxy)but-2-enoyl)oxy) acetic acid] | < 2.5 | 5 to 29 | +++ (+++ means 50-149) | > 100 | + (+ means >17.1-99) | 2.1 to 6 | +++ (+++ means 150-199%) | < 5 | + (+ means >277) | 2.5 to 6.1 | – | – | – | – | – | – | –
O=C(O)CCOC(=O)/C=C/C(=O)OC1(c2ccc(C(F)(F)F)cc2)CCC1 [Example 16, (E)-3-(4-oxo-4-(1-(4-(trifluoromethyl)phenyl)cyclobutoxy)but-2-enoyloxy)propanoic acid] | 2.5 to 6.1 | 5 to 29 | +++ (+++ means 50-149) | – | – | – | – | < 5 | + (+ means >277) | < 2.5 | – | – | – | – | – | – | –
O=C(O)/C=C/C(=O)OC1(c2ccc(C(F)(F)F)cc2)CCC1 [Intermediate 3, (E)-4-oxo-4-(1-(4-(trifluoromethyl)phenyl)cyclobutoxy)but-2-enoic acid] | – | – | – | – | – | – | – | – | – | – | < 6 | > 100 | ++++ (++++ means 5-15) | 30 to 100 | +++ (+++ means >15-30) | – | EC50 (NRF2; [9]): < 23 µM; NRF2 activation Emax (NRF2; [9]): +++ (+++ means >114-150%); EC50 (NRF2; [10]): < 23 µM; NRF2 activation Emax (NRF2; [10]): +++ (+++ means >114-150%); IC50 (IL-6; differentiated THP-1 cells, Table 2, compounds of formula (II)): < 6 µM
O=C(O)/C=C/C(=O)OC1(c2ccc(C(F)(F)F)cc2)CSC1 [Intermediate 17, (E)-4-oxo-4-((3-(4-(trifluoromethyl)phenyl)thietan-3-yl)oxy)but-2-enoic acid] | – | – | – | – | – | – | – | – | – | – | 6 to 30 | 5 to 29 | ++ (++ means >30-110) | 5 to 29 | + (+ means >110-277) | 6 to 30 | –
O=C(O)/C=C/C(=O)OC1(c2ccc(C(F)(F)F)cc2)COC1 [Intermediate 18, (E)-4-oxo-4-((3-(4-(trifluoromethyl)phenyl)oxetan-3-yl)oxy)but-2-enoic acid] | – | – | – | – | – | – | – | – | – | – | 6 to 30 | 30 to 100 | ++ (++ means >30-110) | 30 to 100 | ++ (++ means >30-110) | 6 to 30 | –
O=C(O)/C=C/C(=O)OC1(c2cc(F)c(C(F)(F)F)c(F)c2)CCC1 [Intermediate 29, (E)-4-(1-(3,5-difluoro-4-(trifluoromethyl)phenyl)cyclobutoxy)-4-oxobut-2-enoic acid] | – | – | – | – | – | – | – | – | – | – | < 6 | > 100 | ++++ (++++ means 5-15) | 30 to 100 | +++ (+++ means >15-30) | < 6 | –
O=C(O)/C=C/C(=O)OC1(c2ccc(C(F)(F)F)cc2)CC(F)(F)C1 [Intermediate 32, (E)-4-(3,3-difluoro-1-(4-(trifluoromethyl)phenyl)cyclobutoxy)-4-oxobut-2-enoic acid] | – | – | – | – | – | – | – | – | – | – | < 6 | 30 to 100 | +++ (+++ means >15-30) | 30 to 100 | +++ (+++ means >15-30) | < 6 | –
O=C(O)/C=C/C(=O)OC1(c2cc(Cl)cc(OC(F)(F)F)c2)CCC1 [Intermediate 41, (E)-4-(1-(3-chloro-5-(trifluoromethoxy)phenyl)cyclobutoxy)-4-oxobut-2-enoic acid] | – | – | – | – | – | – | – | – | – | – | 6 to 30 | > 100 | ++++ (++++ means 5-15) | 30 to 100 | ++ (++ means >30-110) | 6 to 30 | –
